Non-standard residues stand in square brackets, D forms with d. Residues, ends and D or L forms follow the SMILES beside them. *: point of attachment. Palmitoyl = CCCCCCCCCCCCCCCC(=O)*; Nle = CCCC[C@H](N)C(=O)O
Target: T1, melanocortin-1 receptor MClr (Homo sapiens, UniProt Q01726)
T1 construct: The cells used to test MClr were human melanocytes; endogenous in cells; host or cells: human melanocytes
Experiment: Melanogenesis stimulation test: quantification of second messenger cAMP
Format: cell-based
Description: Test: Study of the quantification of a second messenger: cAMP
When an agonist binds to this receptor, it leads to activation of a molecule, adenylate cyclase, which produces cAMP. Quantifying cAMP makes it possible to evaluate the affinity of a ligand for its receptor.
Protocol: The cells used to test MClr were human melanocytes.
EC50 is the ligand concentration giving 50% of maximum stimulation.

T1 sequence (Q01726 whole entry): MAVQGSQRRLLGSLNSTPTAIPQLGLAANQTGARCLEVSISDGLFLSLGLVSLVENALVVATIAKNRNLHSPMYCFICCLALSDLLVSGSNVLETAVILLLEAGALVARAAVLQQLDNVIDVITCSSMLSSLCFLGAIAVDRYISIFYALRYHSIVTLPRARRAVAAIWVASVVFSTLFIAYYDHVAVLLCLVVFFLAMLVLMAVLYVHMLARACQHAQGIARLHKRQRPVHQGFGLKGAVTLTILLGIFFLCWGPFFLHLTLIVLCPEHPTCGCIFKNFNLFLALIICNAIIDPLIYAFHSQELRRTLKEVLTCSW

SMILES	EC50 [nM]
CCCCCCCCCCCCCCCC(=O)N[C@@H](CCCC)C(=O)N[C@@H](C)C(=O)N[C@@H](Cc1c[nH]cn1)C(=O)N[C@H](Cc1ccccc1)C(=O)N[C@@H](CCCNC(=N)N)C(=O)N[C@@H](Cc1c[nH]c2ccccc12)C(N)=O [Conjugate no. 13, Palm-Nle-Ala-His-DPhe-Arg-Trp-NH2] (Palmitoyl-[Nle]AH[dF]RW-NH2)	1.6
CCCC[C@H](NC(C)=O)C(=O)N[C@@H](C)C(=O)N[C@@H](CCCNC(=N)N)C(=O)N[C@H](Cc1ccccc1)C(=O)N[C@@H](CCCNC(=N)N)C(=O)N[C@@H](Cc1c[nH]c2ccccc12)C(N)=O [Conjugate no. 2, Ac-Nle-Ala-Arg-DPhe-Arg-Trp-NH2] (Ac-[Nle]AR[dF]RW-NH2)	0.6
